Reference: ChEMBL document CHEMBL4402585 (J Med Chem, 2020)
pIC50, pKd: −log10 of the molar value.

What was measured:
[1] = target: Histone acetyltransferase p300 (Homo sapiens, UniProt Q09472); assay: Inhibition of MSGRGK(Ac)-GGK(Ac)GLGK(Ac)GGAKRHR-biotin binding to EP300 (1040 to 1160 residues) (unknown origin) expressed in Escherichia coli BL21 (DE3) by Alphascreen assay
[2] = Clearance in rat liver microsomes at 0.1 uM preincubated for 10 mins followed by NADPH addition and measured up to 60 mins by LC-MS/MS analysis; type: ADME, Microsome; details: 1 h
[3] = Clearance in mouse liver microsomes at 0.1 uM preincubated for 10 mins followed by NADPH addition and measured up to 60 mins by LC-MS/MS analysis; type: ADME, Microsome; details: 1 h
[4] = Half life in human liver microsomes at 0.1 uM preincubated for 10 mins followed by NADPH addition and measured up to 60 mins by LC-MS/MS analysis; type: ADME, Microsome
[5] = Half life in mouse liver microsomes at 0.1 uM preincubated for 10 mins followed by NADPH addition and measured up to 60 mins by LC-MS/MS analysis; type: ADME, Microsome
[6] = Half life in Sprague-Dawley rat at 3 mg/kg, po by LC-MS/MS analysis; type: ADME, organism-based; details: in vivo
[7] = Cmax in Sprague-Dawley rat at 3 mg/kg, po by LC-MS/MS analysis; type: ADME, organism-based; parameters: dose 3 mg/kg, route oral; details: in vivo
[8] = AUC (0 to t) in Sprague-Dawley rat at 3 mg/kg, po by LC-MS/MS analysis; type: ADME, organism-based; details: in vivo
[9] = Half life in Sprague-Dawley rat at 1 mg/kg, iv by LC-MS/MS analysis; type: ADME, organism-based; details: in vivo
[10] = Volume of distribution at steady state in Sprague-Dawley rat at 1 mg/kg, iv by LC-MS/MS analysis; type: ADME, organism-based; details: in vivo, read-out: Vdss
[11] = Clearance in Sprague-Dawley rat at 1 mg/kg, iv by LC-MS/MS analysis; type: ADME, organism-based; details: in vivo
[12] = Half life in mouse at 3 mg/kg, po by LC-MS/MS analysis; type: ADME, organism-based; details: in vivo
[13] = Cmax in mouse at 3 mg/kg, po by LC-MS/MS analysis; type: ADME, organism-based; parameters: dose 3 mg/kg, route oral; details: in vivo
[14] = Oral bioavailability in mouse at 3 mg/kg by LC-MS/MS analysis; type: ADME, organism-based; details: in vivo
[15] = Volume of distribution at steady state in mouse at 3 mg/kg, iv by LC-MS/MS analysis; type: ADME, organism-based; details: in vivo, read-out: Vdss
[16] = Clearance in mouse at 3 mg/kg, iv by LC-MS/MS analysis; type: ADME, organism-based; details: in vivo
[17] = target: Bromodomain-containing protein 2 (Homo sapiens, UniProt P25440); assay: Binding affinity to human partial length BRD2 BD2 isoform 1 (E348 to D455 residues) expressed in bacterial expression system by bromoscan assay
[18] = target: Bromodomain-containing protein 3 (Homo sapiens, UniProt Q15059); assay: Binding affinity to human partial length BRD3 BD2 (G306 to P416 residues) expressed in bacterial expression system by bromoscan assay
[19] = target: Bromodomain testis-specific protein (Homo sapiens, UniProt Q58F21); assay: Binding affinity to human partial length BRDT bromodomain 2 isoform b (K250 to E382 residues) expressed in bacterial expression system by bromoscan assay
MM1.S = assay: Antiproliferative activity against human MM1S cells assessed as reduction in cell viability measured after 72 hrs by Celltitre-glo luminescence assay; type: functional, cell-based
[20] = target: T1, Bromodomain-containing protein 4 (Homo sapiens, UniProt O60885); assay: Inhibition of BRD4 in human MV4-11 cells assessed as reduction in c-Myc expression measured after 6 to 24 hrs by Western blot analysis; type: cell-based
[21] = Half life in dog liver microsomes at 0.1 uM preincubated for 10 mins followed by NADPH addition and measured up to 60 mins by LC-MS/MS analysis; type: ADME, Canis lupus familiaris, Microsome
[22] = Half life in monkey liver microsomes at 0.1 uM preincubated for 10 mins followed by NADPH addition and measured up to 60 mins by LC-MS/MS analysis; type: ADME, Macaca mulatta, Microsome; details: rhesus monkey
[23] = Clearance in dog liver microsomes at 0.1 uM preincubated for 10 mins followed by NADPH addition and measured up to 60 mins by LC-MS/MS analysis; type: ADME, Canis lupus familiaris, Microsome; details: 1 h
Cytochrome P450 1A2 = target: T2, Cytochrome P450 1A2 (Homo sapiens, UniProt P05177); assay: Inhibition of CYP1A2 in human liver microsomes using phenacetin as substrate preincubated for 10 mins followed by NADPH addition and measured after 15 mins by LC-MS/MS analysis; type: ADME
T2 sequence (P05177 whole entry): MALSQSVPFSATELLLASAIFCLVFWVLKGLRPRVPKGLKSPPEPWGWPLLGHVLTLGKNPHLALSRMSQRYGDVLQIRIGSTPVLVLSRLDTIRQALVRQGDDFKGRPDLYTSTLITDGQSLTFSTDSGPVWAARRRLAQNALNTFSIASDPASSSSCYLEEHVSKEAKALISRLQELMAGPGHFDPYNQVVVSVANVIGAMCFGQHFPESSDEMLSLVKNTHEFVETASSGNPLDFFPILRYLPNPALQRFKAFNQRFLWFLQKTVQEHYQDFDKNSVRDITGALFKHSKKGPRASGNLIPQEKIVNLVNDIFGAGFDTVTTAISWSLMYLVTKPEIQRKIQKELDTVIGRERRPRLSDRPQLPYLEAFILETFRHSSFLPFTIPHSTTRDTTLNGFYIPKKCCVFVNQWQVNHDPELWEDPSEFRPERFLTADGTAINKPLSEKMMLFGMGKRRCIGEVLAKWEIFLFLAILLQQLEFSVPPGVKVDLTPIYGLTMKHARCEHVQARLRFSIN

Cytochrome P450 2C19 = Cytochrome P450 2C19 (Homo sapiens, UniProt P33261); assay: Inhibition of CYP2C19 in human liver microsomes using S-mephenytoin as substrate preincubated for 10 mins followed by NADPH addition and measured after 15 mins by LC-MS/MS analysis; type: ADME
Cytochrome P450 3A4 [24] = target: T3, Cytochrome P450 3A4 (Homo sapiens, UniProt P08684); assay: Inhibition of CYP3A4 in human liver microsomes using testosterone as substrate preincubated for 10 mins followed by NADPH addition and measured after 15 mins by LC-MS/MS analysis; type: ADME
Cytochrome P450 3A4 [25] = target: T3, Cytochrome P450 3A4; assay: Inhibition of CYP3A4 in human liver microsomes using midazolam as substrate preincubated for 10 mins followed by NADPH addition and measured after 15 mins by LC-MS/MS analysis; type: ADME
[26] = target: Voltage-gated inwardly rectifying potassium channel KCNH2 (Homo sapiens, UniProt Q12809); assay: Inhibition of human ERG at 40 uM by Qpatch automatic patch clamp method
MV4-11 = assay: Antitumor activity against human MV4-11 cells xenografted in mouse assessed as tumor growth inhibition at 6.25 mg/kg, po administered for 28 days and measured every 2 to 3 days during compound dosing relative to control; type: functional; details: MV4-11, po, read-out: TGI
[27] = Toxicity in human MV4-11 cells xenografted mouse assessed as change in body weight at 6.25 to 12.5 mg/kg, po administered for 28 days and measured every 2 to 3 days during compound dosing; type: organism-based; details: in vivo
[28] = target: T1, Bromodomain-containing protein 4
Description: Binding affinity to N-terminal His6-tagged BRD4 bromodomain 1 (49 to 170 residues) (unknown origin) expressed in Escherichia coli BL21 (DE3) assessed as change in melting temperature at 1:100 molar ratio by SYPRO orange dye based fluorescence thermal shift assay

T3 sequence (P08684 whole entry): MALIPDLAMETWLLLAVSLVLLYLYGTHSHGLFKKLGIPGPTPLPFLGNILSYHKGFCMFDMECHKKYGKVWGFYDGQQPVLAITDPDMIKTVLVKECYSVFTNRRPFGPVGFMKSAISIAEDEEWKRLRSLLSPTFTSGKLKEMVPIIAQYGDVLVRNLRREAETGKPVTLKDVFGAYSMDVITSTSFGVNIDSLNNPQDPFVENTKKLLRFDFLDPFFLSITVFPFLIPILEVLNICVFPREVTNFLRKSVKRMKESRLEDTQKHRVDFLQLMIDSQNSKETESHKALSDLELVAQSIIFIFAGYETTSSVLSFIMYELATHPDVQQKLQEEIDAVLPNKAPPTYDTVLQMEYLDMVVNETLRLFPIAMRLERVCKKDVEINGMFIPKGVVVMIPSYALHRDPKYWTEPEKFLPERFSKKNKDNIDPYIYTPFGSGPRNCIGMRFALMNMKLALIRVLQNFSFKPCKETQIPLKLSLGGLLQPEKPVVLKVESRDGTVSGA
Cytochrome P450 2C19, sequence (P33261 whole entry): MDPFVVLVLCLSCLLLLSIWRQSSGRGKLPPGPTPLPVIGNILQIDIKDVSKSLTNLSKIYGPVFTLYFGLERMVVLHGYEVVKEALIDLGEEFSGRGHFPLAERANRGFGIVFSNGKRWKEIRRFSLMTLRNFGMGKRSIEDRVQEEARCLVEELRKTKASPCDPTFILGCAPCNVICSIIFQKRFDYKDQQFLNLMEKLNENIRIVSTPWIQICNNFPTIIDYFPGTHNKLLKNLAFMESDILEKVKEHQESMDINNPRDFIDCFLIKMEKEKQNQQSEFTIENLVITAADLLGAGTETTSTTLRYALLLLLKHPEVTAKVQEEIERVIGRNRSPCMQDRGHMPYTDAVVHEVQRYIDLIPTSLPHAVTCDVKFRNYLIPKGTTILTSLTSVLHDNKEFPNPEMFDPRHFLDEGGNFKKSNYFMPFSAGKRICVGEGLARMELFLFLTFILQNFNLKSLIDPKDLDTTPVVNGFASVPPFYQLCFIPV
Voltage-gated inwardly rectifying potassium channel KCNH2, sequence (Q12809 whole entry): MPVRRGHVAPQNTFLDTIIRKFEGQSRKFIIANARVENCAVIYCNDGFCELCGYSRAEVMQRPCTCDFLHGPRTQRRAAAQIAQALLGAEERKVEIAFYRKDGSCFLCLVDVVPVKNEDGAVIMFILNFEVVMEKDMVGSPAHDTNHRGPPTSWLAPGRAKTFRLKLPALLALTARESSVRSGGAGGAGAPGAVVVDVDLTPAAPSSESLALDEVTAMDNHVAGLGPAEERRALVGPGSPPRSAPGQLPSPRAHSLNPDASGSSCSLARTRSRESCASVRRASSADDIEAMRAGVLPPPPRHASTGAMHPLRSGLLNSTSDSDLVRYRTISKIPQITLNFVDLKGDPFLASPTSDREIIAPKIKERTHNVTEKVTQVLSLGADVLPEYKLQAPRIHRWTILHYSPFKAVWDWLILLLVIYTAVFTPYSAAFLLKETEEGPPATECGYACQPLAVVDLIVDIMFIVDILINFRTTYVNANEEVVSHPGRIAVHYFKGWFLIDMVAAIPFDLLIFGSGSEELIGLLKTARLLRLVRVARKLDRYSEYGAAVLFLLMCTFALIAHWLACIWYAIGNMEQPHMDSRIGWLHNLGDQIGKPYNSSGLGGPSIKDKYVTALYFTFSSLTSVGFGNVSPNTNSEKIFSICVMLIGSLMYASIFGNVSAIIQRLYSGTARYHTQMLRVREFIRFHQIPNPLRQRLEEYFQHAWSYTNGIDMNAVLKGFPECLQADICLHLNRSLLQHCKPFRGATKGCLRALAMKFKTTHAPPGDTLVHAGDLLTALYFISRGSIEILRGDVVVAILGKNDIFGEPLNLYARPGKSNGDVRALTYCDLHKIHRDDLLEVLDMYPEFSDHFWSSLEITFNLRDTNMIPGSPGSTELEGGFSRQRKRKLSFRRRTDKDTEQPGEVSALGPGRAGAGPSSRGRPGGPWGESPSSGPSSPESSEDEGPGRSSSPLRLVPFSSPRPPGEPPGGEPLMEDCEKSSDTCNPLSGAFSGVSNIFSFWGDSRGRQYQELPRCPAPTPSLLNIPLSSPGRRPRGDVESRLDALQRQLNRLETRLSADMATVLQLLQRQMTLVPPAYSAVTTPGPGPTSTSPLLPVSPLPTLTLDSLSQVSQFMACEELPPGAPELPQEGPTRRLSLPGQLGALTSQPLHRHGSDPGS
Bromodomain-containing protein 3, sequence (Q15059 whole entry, the tested form may be a part, canonical isoform): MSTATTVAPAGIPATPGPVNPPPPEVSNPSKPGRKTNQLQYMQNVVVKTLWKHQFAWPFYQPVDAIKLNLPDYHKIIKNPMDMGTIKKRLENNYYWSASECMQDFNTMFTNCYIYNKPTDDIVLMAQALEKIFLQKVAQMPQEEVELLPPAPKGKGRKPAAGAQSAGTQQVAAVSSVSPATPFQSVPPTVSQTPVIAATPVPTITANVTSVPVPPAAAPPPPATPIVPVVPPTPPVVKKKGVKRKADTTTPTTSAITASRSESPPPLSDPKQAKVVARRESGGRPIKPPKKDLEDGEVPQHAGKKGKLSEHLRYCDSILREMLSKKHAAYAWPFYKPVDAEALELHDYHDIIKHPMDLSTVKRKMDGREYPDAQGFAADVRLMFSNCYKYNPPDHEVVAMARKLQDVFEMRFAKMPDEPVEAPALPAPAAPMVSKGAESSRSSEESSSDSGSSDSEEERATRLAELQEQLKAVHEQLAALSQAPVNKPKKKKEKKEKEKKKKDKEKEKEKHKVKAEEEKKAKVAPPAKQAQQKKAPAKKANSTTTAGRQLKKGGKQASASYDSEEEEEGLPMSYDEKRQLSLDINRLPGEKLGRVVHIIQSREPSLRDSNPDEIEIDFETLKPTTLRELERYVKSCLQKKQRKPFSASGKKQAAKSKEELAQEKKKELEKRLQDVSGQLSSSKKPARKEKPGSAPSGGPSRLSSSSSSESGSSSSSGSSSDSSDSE
Bromodomain-containing protein 2, sequence (P25440 whole entry, the tested form may be a part, canonical isoform): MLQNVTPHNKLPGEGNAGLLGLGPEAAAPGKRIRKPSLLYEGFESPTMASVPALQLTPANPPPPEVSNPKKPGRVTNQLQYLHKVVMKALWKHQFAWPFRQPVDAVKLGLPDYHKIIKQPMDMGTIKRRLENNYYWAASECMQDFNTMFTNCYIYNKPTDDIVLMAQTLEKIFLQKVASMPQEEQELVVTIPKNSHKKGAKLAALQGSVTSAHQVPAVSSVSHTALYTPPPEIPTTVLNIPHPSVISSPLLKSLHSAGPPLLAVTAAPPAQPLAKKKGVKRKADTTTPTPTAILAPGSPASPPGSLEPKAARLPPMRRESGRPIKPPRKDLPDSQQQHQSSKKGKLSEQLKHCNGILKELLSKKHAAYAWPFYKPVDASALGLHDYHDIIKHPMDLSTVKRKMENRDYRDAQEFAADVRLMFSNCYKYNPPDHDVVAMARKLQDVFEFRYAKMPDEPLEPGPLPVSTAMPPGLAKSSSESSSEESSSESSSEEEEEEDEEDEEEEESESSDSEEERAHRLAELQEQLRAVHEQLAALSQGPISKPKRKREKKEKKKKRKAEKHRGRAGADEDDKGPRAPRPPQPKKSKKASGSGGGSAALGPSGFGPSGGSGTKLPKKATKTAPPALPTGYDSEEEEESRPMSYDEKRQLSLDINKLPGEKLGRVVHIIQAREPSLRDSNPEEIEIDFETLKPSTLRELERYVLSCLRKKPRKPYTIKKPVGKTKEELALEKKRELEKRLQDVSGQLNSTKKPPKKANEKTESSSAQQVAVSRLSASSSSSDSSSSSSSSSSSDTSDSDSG

CCS(=O)(=O)Cc1cnc(Oc2ccc(F)cc2F)c(-c2cc(C)c3c(=O)[nH]ccn23)c1
pIC50 [1]: 5.41
Intrinsic clearance [2]: 64.8 mL/min/g
Microsomal intrinsic clearance [3]: 25.4 mL/min/g
half-life at 0.1 µM [4]: 2.87 h
half-life at 0.1 µM [5]: 1.38 h
half-life [6]: 3.6 h
Cmax [7]: 159 ng/mL
AUC(0-t) [8]: 884 ng·h/mL
half-life [9]: 1.3 h
Vd [10]: 1.46 L/kg
clearance [11]: 21.5 mL/min/kg
half-life [12]: 1.3 h
Cmax [13]: 399 ng/mL
bioavailability [14]: 52.3%
Vd [15]: 0.782 L/kg
clearance [16]: 15.3 mL/min/kg
pKd [17]: 8.89
pKd [18]: 9.00
pKd [19]: 8.68
pIC50 (MM1.S): 7.80
inhibition [20]: Dose-dependent effect
half-life at 0.1 µM [21]: 1.39 h
half-life at 0.1 µM [22]: 0.817 h
CLH [23]: 25.2 mL/min/g
pIC50 (Cytochrome P450 1A2): < 4.70
pIC50 (Cytochrome P450 2C19): < 4.70
pIC50 (Cytochrome P450 3A4 [24]): < 4.70
pIC50 (Cytochrome P450 3A4 [25]): < 4.70
inhibition (INH) [26]: Not Active
inhibition in vivo at 6.25 mg/kg (MV4-11): 76.4%
Activity [27]: Non-Toxic
ΔTm [28]: > 1 °C
